The values that follow come from paper PMC6886403, “Structure-Based and Molecular Modeling Studies for the Discovery of Cyclic Imides as Reversible Cruzain Inhibitors With Potent Anti-Trypanosoma cruzi Activity” (Frontiers in Chemistry, 2019).

Some results are limits rather than exact numbers.

Assay [1] deals with T1, cruzain (Trypanosoma cruzi, UniProt P25779).
T1 construct: inferred from Ni-NTA purification of the pro-enzyme; made in house; host or cells: Escherichia coli (M15)
In words: Cruzain inhibition assay (cleavage of fluorogenic substrate Z-Phe-Arg-AMC). The assay is classed as biochemical. The following applies: for inhibition at 100 µM: at 100 μM inhibitor, mean of three measurements, read-out: Percent inhibition against cruzain; for IC50: mean ± SD of three individual experiments, at least six inhibitor concentrations in triplicate, 1.5 nM cruzain, 5.0 μM Z-Phe-Arg-AMC, pH 5.5; for decrease in potency against cruzain relative to 3a: less active than 3a. On the procedure: The catalytic activity of cruzain was monitored by cleavage of the fluorogenic substrate Z-Phe-Arg-aminomethyl coumarin (Z-Phe-Arg-AMC) as previously described (Ferreira et al., [2014]). The enzyme kinetics assays were performed in 0.1 M sodium acetate buffer (pH 5.5) with 5 mM dithiothreitol (DTT) and 0.01% Triton X-100. […] The enzyme reaction was monitored for 5 min at 30°C in 96-well black flat bottom plates, and the activity was calculated based on the initial rates compared with a control (DMSO). Wavelengths of 355 nm for excitation and 460 nm for emission were used. IC50 values were independently determined by determining rate measurements for at least six inhibitor concentrations, each evaluated in triplicate. To determine the mechanism of inhibition, eight substrate concentrations and four inhibitor concentrations were used, each in triplicate. The mechanism of inhibition was determined by Lineweaver-Burk plots. SigmaPlot 10.0 (Systat Software Inc., Erkrath, Germany) was used to determine the IC50 values.

The test system of assay [2] is T. cruzi intracellular amastigotes. Put plainly: T. cruzi intracellular amastigote assay (Tulahuen lacZ strain, CPRG readout). The assay is classed as cell-based, Trypanosoma cruzi. The following applies: intracellular amastigotes; for IC50: Trypanosoma cruzi, Tulahuen strain in HFF-1 fibroblasts, 120 h, mean ± SD of two experiments, read-out: IC50 T. cruzi. The protocol:
In vitro assays against T. cruzi were performed as described previously (Ferreira et al., [2014]). The T. cruzi Tulahuen strain, which expresses the E. coli β-galactosidase gene lacZ (Buckner et al., [1996]), was provided by Frederick S. Buckner (University of Washington, Seattle, WA). Stock solutions of the synthesized compounds were prepared in 100% DMSO. Epimastigotes were grown in liver infusion tryptone (LIT) supplemented with 10% fetal calf serum (FCS), penicillin and streptomycin (28°C). Metacyclogenesis from epimastigotes to trypomastigotes was induced by incubation of the epimastigotes in Grace's insect medium (Sigma-Aldrich, St. Louis, MO) supplemented with 10% FCS (28°C). HFF-1 human fibroblasts were seeded at 2 × 10^3/well (80 μL) in 96-well tissue culture plates in RPMI 1640 without phenol red supplemented with 10% FCS and incubated overnight (37°C, 5% CO2). Next, trypomastigotes were added at 1.0 × 10^4/well (20 μL), and the plates were incubated (37°C, 5% CO2). After 24 h, 3-fold serial dilutions (50 μL) of the synthesized compounds were added at concentrations ranging from 0.1 to 100 μM, and the plates were incubated (37°C, 5% CO2). Each compound concentration was evaluated in triplicate. All plates included BZ (Sigma-Aldrich) as a positive control and untreated wells (100% growth) as a negative control. After 120 h, 50 μL of chlorophenol red β-D-galactopyranoside (CPRG, Sigma-Aldrich) and IGEPAL CA-630 (Sigma-Aldrich) (0.1%) was added to each well. The absorbance was measured at 570 nm in an automated microplate reader, and the data were transferred to SigmaPlot 10.0 (Systat Software Inc.) for IC50 value calculation.

T1 sequence (P25779 123-337 limits assumed): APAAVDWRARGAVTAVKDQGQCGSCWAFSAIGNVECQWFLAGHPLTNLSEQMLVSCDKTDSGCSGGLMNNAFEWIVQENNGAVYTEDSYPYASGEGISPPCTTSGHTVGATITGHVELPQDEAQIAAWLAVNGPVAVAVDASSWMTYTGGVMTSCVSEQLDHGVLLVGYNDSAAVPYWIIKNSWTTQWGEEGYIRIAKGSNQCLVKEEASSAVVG

Consider `COc1ccc(NC(=O)COC(=O)[C@H](Cc2ccccc2)N2C(=O)C3CC=CCC3C2=O)cc1Cl` (stereo partly drawn) [10h, 2-((3-chloro-4-methoxyphenyl)amino)-2-oxoethyl (2S)-2-(1,3-dioxo-1,3,3a,4,7,7a-hexahydro-2H-isoindol-2-yl)-3-phenylpropanoate], for which, in assay [1], the “activity against cruzain (in words)” value is given as “active”, the inhibition at 100 µM was determined as 96% and half-maximal inhibition (IC50) was put at 1.4 ± 0.8 µM. Further, in assay [1] (Lineweaver-Burk plots, eight substrate and four inhibitor concentrations), the mechanism of inhibition entry is listed as “competitive”. In addition, in assay [1] (more active than 3a), the “increase in potency against cruzain relative to 3a” value is 2 fold. In addition, in assay [2], the IC50 was more than 100 µM and the “activity against T. cruzi (in words)” value is “inactive”.
`CC(C)C[C@@H](C(=O)OCC(=O)Nc1ccc(F)c([N+](=O)[O-])c1)N1C(=O)C2CC=CCC2C1=O` (stereo partly drawn) [3j, 2-((4-fluoro-3-nitrophenyl)amino)-2-oxoethyl (2S)-2-(1,3-dioxo-1,3,3a,4,7,7a-hexahydro-2H-isoindol-2-yl)-4-methylpentanoate]: in assay [1], the inhibition at 100 µM turned out to be 56%.
Regarding `CC(C)C[C@@H](C(=O)OCC(=O)Nc1ccc(F)cc1)N1C(=O)C2CC=CCC2C1=O` (stereo partly drawn) [3e, 2-((4-fluorophenyl)amino)-2-oxoethyl (2S)-2-(1,3-dioxo-1,3,3a,4,7,7a-hexahydro-2H-isoindol-2-yl)-4-methylpentanoate], in assay [1], the inhibition at 100 µM was 74% and inhibition was half-maximal at 20.5 ± 1.3 µM (IC50). The IC50 in assay [2] was more than 100 µM.
Turning to `COc1ccc(NC(=O)COC(=O)[C@H](CC(C)C)N2C(=O)c3ccccc3C2=O)cc1Cl` [10a, 2-((3-chloro-4-methoxyphenyl)amino)-2-oxoethyl (S)-2-(1,3-dioxoisoindolin-2-yl)-4-methylpentanoate], the inhibition at 100 µM in assay [1] came to 39%.
As for `CC(C)C[C@@H](C(=O)OCC(=O)Nc1ccccc1)N1C(=O)C2CC=CCC2C1=O` (stereo partly drawn) [3d, 2-oxo-2-(phenylamino)ethyl (2S)-2-(1,3-dioxo-1,3,3a,4,7,7a-hexahydro-2H-isoindol-2-yl)-4-methylpentanoate], in assay [1], the inhibition at 100 µM turned out to be 76%, the “decrease in potency against cruzain relative to 3a” value was 8 fold and the IC50 was determined as 16.7 ± 1.3 µM. In assay [2], the IC50 was more than 100 µM.
On to `COc1ccc(NC(=O)COC(=O)[C@H](CC(C)C)N2C(=O)C3CC=CCC3C2=O)cc1Cl` (stereo partly drawn) [3a, 2-((3-chloro-4-methoxyphenyl)amino)-2-oxoethyl (2S)-2-(1,3-dioxo-1,3,3a,4,7,7a-hexahydro-2H-isoindol-2-yl)-4-methylpentanoate], for which, in assay [1], the inhibition at 100 µM was determined as 88% and inhibition was half-maximal at 2.2 ± 0.4 µM (IC50). For the same molecule, in assay [2], the concentration for half-maximal inhibition (IC50) was more than 100 µM and the “activity against T. cruzi (in words)” value is recorded as “not active”.
In the case of `COc1ccc(NC(=O)COC(=O)CN2C(=O)C3CC=CCC3C2=O)cc1Cl` (stereo not drawn) [10g, 2-((3-chloro-4-methoxyphenyl)amino)-2-oxoethyl 2-(1,3-dioxo-1,3,3a,4,7,7a-hexahydro-2H-isoindol-2-yl)acetate], in assay [1], the “activity against cruzain (in words)” value is “inactive” and the inhibition at 100 µM amounted to 0%.
In the case of `CC(C)C[C@@H](C(=O)OCC(=O)Nc1cccc(Cl)c1)N1C(=O)C2CC=CCC2C1=O` (stereo partly drawn) [3c, 2-((3-chlorophenyl)amino)-2-oxoethyl (2S)-2-(1,3-dioxo-1,3,3a,4,7,7a-hexahydro-2H-isoindol-2-yl)-4-methylpentanoate], in assay [1], the inhibition at 100 µM is 67% and the midpoint of inhibition, the IC50, lay at 40.1 µM.
Consider `CC(C)CC(C(=O)OCC(=O)Nc1ccc([N+](=O)[O-])cc1)N1C(=O)C2CC=CCC2C1=O` (stereo not drawn) [3l], for which the inhibition at 100 µM in assay [1] was 67%.
Regarding `COc1ccc(NC(=O)COC(=O)[C@H](CC(C)C)N2CCCC2)cc1Cl` [10k, 2-((3-chloro-4-methoxyphenyl)amino)-2-oxoethyl (S)-4-methyl-2-(pyrrolidin-1-yl)pentanoate], in assay [1], the “activity against cruzain (in words)” value was “inactive” and the inhibition at 100 µM was 6%. In assay [2], the IC50 was more than 100 µM and the “activity against T. cruzi (in words)” value was “inactive”.
On to `CC(C)C[C@@H](C(=O)OCC(=O)Nc1ccc(O)cc1)N1C(=O)C2CC=CCC2C1=O` (stereo partly drawn) [3h, 2-((4-hydroxyphenyl)amino)-2-oxoethyl (2S)-2-(1,3-dioxo-1,3,3a,4,7,7a-hexahydro-2H-isoindol-2-yl)-4-methylpentanoate], for which the inhibition at 100 µM in assay [1] stood at 6%.
The same measure, in the same setting: under `COc1ccc(NC(=O)CNC(=O)C(CC(C)C)N2C(=O)C3CC=CCC3C2=O)cc1Cl` (stereo not drawn) [compound 5, N-(2-((3-chloro-4-methoxyphenyl)amino)-2-oxoethyl)-2-(1,3-dioxo-1,3,3a,4,7,7a-hexahydro-2H-isoindol-2-yl)-4-methylpentanamide] stands 38%.
`COc1ccc(NC(=O)COC(=O)[C@H](CC(C)C)N2C(=O)C3CC=CCC3C2=O)cc1` (stereo partly drawn) [3b, 2-((4-methoxyphenyl)amino)-2-oxoethyl (2S)-2-(1,3-dioxo-1,3,3a,4,7,7a-hexahydro-2H-isoindol-2-yl)-4-methylpentanoate]: in assay [1], the inhibition at 100 µM was 86% and the IC50 was 13.9 µM.
Turning to `COc1ccc(NC(=O)COC(=O)[C@H](CC(C)C)N2C(=O)C3CCCCC3C2=O)cc1Cl` (stereo partly drawn) [10b, 2-((3-chloro-4-methoxyphenyl)amino)-2-oxoethyl (2S)-2-(1,3-dioxooctahydro-2H-isoindol-2-yl)-4-methylpentanoate], in assay [1], the inhibition at 100 µM was 75%; the “decrease in potency against cruzain relative to 3a” value was found to be 2 fold; the midpoint of inhibition, the IC50, lay at 4.2 ± 1.5 µM. Also, the IC50 in assay [2] was more than 100 µM.
Turning to `COc1ccc(NC(=O)COC(=O)[C@@H](Cc2ccc3ccccc3c2)N2C(=O)C3CC=CCC3C2=O)cc1Cl` (stereo partly drawn) [10i, 2-((3-chloro-4-methoxyphenyl)amino)-2-oxoethyl (2R)-2-(1,3-dioxo-1,3,3a,4,7,7a-hexahydro-2H-isoindol-2-yl)-3-(naphthalen-2-yl)propanoate], the inhibition at 100 µM in assay [1] was determined as 58%.
On the same count and under the same terms, under `COc1ccc(NC(=O)COC(=O)C(CC(C)C)N2C(=O)C3CC=CCC3C2=O)c([N+](=O)[O-])c1` (stereo not drawn) [3m] stands 53%.
The same measure, in the same setting: under `CC(C)C[C@@H](C(=O)OCC(=O)Nc1ccc(Cl)cc1)N1C(=O)C2CC=CCC2C1=O` (stereo partly drawn) [3g, 2-((4-chlorophenyl)amino)-2-oxoethyl (2S)-2-(1,3-dioxo-1,3,3a,4,7,7a-hexahydro-2H-isoindol-2-yl)-4-methylpentanoate] stands 56%.
In the case of `COc1ccc(NC(=O)COC(=O)C(Cc2ccccc2)N2C(=O)C3CC=CCC3C2=O)cc1Cl` (stereo not drawn) [10hrac, 2-((3-chloro-4-methoxyphenyl)amino)-2-oxoethyl 2-(1,3-dioxo-1,3,3a,4,7,7a-hexahydro-2H-isoindol-2-yl)-3-phenylpropanoate], the IC50 in assay [1] was determined as 1.16 µM.
In the case of `CC(C)C[C@@H](C(=O)OCC(=O)Nc1ccc(Br)cc1)N1C(=O)C2CC=CCC2C1=O` (stereo partly drawn) [3f, 2-((4-bromophenyl)amino)-2-oxoethyl (2S)-2-(1,3-dioxo-1,3,3a,4,7,7a-hexahydro-2H-isoindol-2-yl)-4-methylpentanoate], the inhibition at 100 µM in assay [1] is 53%.
